Experimental data published in ChEMBL document CHEMBL1201862, “PubChem BioAssay data set” (2004).
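These data come from cells grown in 96-well plates and exposed to compound for 48 hours at five concentrations. The concentration for 50% growth inhibition is given as GI50.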 The source made the active and inactive calls. Rule as the data show it: active = GI50 up to about 1.1 µM and inactive = higher.

Columns and labels:
Assay in all cases: growth of human tumour cells (NCI), 48 h
[1] = test system: HCC 2998
[2] = test system: MDA-MB-435
[3] = test system: UACC-257
[4] = test system: RXF 393
[5] = test system: NCI-H460
[6] = test system: SF-539
[7] = test system: NCI/ADR-RES
[8] = test system: HT-29
[9] = test system: DU-145
[10] = test system: A549
[11] = test system: RPMI-8226
[12] = test system: TK-10
[13] = test system: EKVX
[14] = test system: UO-31
[15] = test system: KM-20L2
[16] = test system: SR
[17] = test system: SK-OV-3
[18] = test system: OVCAR-4
[19] = test system: MCF7
[20] = test system: SF-268

| SMILES | GI50 [1] | GI50 [2] | GI50 [3] | GI50 [4] | GI50 [5] | GI50 [6] | GI50 [7] | GI50 [8] | GI50 [9] | GI50 [10] | GI50 [11] | GI50 [12] | GI50 [13] | GI50 [14] | GI50 [15] | GI50 [16] | GI50 [17] | GI50 [18] | GI50 [19] | GI50 [20] |
| --- | --- | --- | --- | --- | --- | --- | --- | --- | --- | --- | --- | --- | --- | --- | --- | --- | --- | --- | --- | --- |
| [N-]=[N+]=CC(=O)CCC(N)C(=O)O (centres undefined) | 1.67 µM (inactive) | 1.75 µM (inactive) | 11 µM (inactive) | 8.18 µM (inactive) | 1.38 µM (inactive) | 0.482 µM (active) | 8.38 µM (inactive) | 0.385 µM (active) | 1.75 µM (inactive) | 1.01 µM (active) | 3.54 µM (inactive) | 2.07 µM (inactive) | 4.83 µM (inactive) | 5.12 µM (inactive) | 0.226 µM (active) | 0.809 µM (active) | 1.35 µM (inactive) | 29.9 µM (inactive) | 0.474 µM (active) | 1.25 µM (inactive) |
| CCN(CC)CC(C)C(=O)/C=C/c1ccc(C)cc1 (centres undefined) | 3.13 µM (inactive) | – | 2.23 µM (inactive) | 2.19 µM (inactive) | 4.83 µM (inactive) | 2.05 µM (inactive) | – | 1.85 µM (inactive) | – | 3.77 µM (inactive) | 1.64 µM (inactive) | 2.03 µM (inactive) | 13.8 µM (inactive) | 13.5 µM (inactive) | 10 µM (inactive) | 2.48 µM (inactive) | 17 µM (inactive) | 2.23 µM (inactive) | – | 2.1 µM (inactive) |
| CCSCN(C)c1nc(N(C)C)nc(N(C)C)n1 | > 100 µM (inactive) | – | 43 µM (inactive) | 14.2 µM (inactive) | 39.8 µM (inactive) | 36.1 µM (inactive) | – | 36.5 µM (inactive) | – | 55.2 µM (inactive) | 49.1 µM (inactive) | > 100 µM (inactive) | > 100 µM (inactive) | 41.7 µM (inactive) | 55 µM (inactive) | 30 µM (inactive) | > 100 µM (inactive) | 72.3 µM (inactive) | – | > 100 µM (inactive) |
| Cc1ccc(SSc2ccc(C)cc2C(=O)O)c(C(=O)O)c1 | – | – | > 100 µM (inactive) | > 100 µM (inactive) | > 100 µM (inactive) | > 100 µM (inactive) | – | > 100 µM (inactive) | – | > 100 µM (inactive) | – | > 100 µM (inactive) | > 100 µM (inactive) | > 100 µM (inactive) | > 100 µM (inactive) | > 100 µM (inactive) | > 100 µM (inactive) | > 100 µM (inactive) | – | > 100 µM (inactive) |
| CC(=O)[C@@]1(O)CC[C@H]2[C@@H]3C[C@H](C)C4=CC(=O)C=C[C@]4(C)[C@@]3(F)[C@@H](O)C[C@@]21C [FLUOROMETHOLONE] | > 100 µM (inactive) | > 100 µM (inactive) | > 100 µM (inactive) | > 91.4 µM (inactive) | > 100 µM (inactive) | > 87.3 µM (inactive) | > 100 µM (inactive) | > 100 µM (inactive) | > 51.4 µM (inactive) | > 100 µM (inactive) | > 14.6 µM (inactive) | > 100 µM (inactive) | > 67.5 µM (inactive) | > 100 µM (inactive) | > 100 µM (inactive) | > 100 µM (inactive) | > 100 µM (inactive) | > 100 µM (inactive) | > 100 µM (inactive) | > 95.1 µM (inactive) |
| CCN(CC)CCCC(C)Nc1ccnc2cc(Cl)ccc12 (centres undefined) [CHLOROQUINE PHOSPHATE] | 19.5 µM (inactive) | 16.4 µM (inactive) | 23.1 µM (inactive) | 2.4 µM (inactive) | 18 µM (inactive) | 16.6 µM (inactive) | 42.1 µM (inactive) | 17.5 µM (inactive) | 7.94 µM (inactive) | 39.5 µM (inactive) | 19.5 µM (inactive) | 37.3 µM (inactive) | > 57 µM (inactive) | 14.9 µM (inactive) | 14.6 µM (inactive) | 13.6 µM (inactive) | > 76.7 µM (inactive) | 51.3 µM (inactive) | 19.1 µM (inactive) | 60.7 µM (inactive) |
| COc1cccc2c1[C@H]1CO[C@H]3C4C[C@H](C(=O)O)C([C@@H](C2)N13)N4C (some centres undefined) | 2.58 µM (inactive) | 0.0533 µM (active) | 1.91 µM (inactive) | 1.19 µM (inactive) | 3.93 µM (inactive) | 1.56 µM (inactive) | 0.764 µM (active) | 2.13 µM (inactive) | 0.0423 µM (active) | 8.18 µM (inactive) | – | 3.28 µM (inactive) | 4.74 µM (inactive) | 1.54 µM (inactive) | 3.24 µM (inactive) | 1.14 µM (inactive) | – | 5 µM (inactive) | 0.491 µM (active) | 1.79 µM (inactive) |
| CC(C#N)c1cn(S(=O)(=O)c2ccccc2)c2ccccc12 (centres undefined) | 76.7 µM (inactive) | – | 31.3 µM (inactive) | – | 61.7 µM (inactive) | 68.1 µM (inactive) | – | > 100 µM (inactive) | – | 36.5 µM (inactive) | 38.5 µM (inactive) | > 100 µM (inactive) | – | 15.8 µM (inactive) | 67.8 µM (inactive) | 30.8 µM (inactive) | – | 34 µM (inactive) | – | 82.8 µM (inactive) |
| CC(=O)Oc1c(C)n(CCCl)ccc1=O | – | – | > 100 µM (inactive) | > 100 µM (inactive) | 44.6 µM (inactive) | – | – | > 100 µM (inactive) | – | > 100 µM (inactive) | > 100 µM (inactive) | 22.5 µM (inactive) | > 100 µM (inactive) | 59.2 µM (inactive) | 57.7 µM (inactive) | > 100 µM (inactive) | > 100 µM (inactive) | > 100 µM (inactive) | – | > 100 µM (inactive) |
| COC1CC(OS(=O)(=O)c2ccc(C)cc2)C(OS(=O)(=O)c2ccc(C)cc2)C(COS(=O)(=O)c2ccc(C)cc2)O1 (centres undefined) | 12.8 µM (inactive) | – | 8.89 µM (inactive) | 1.71 µM (inactive) | 4.3 µM (inactive) | 1.88 µM (inactive) | – | 3.31 µM (inactive) | – | 5.9 µM (inactive) | 19.4 µM (inactive) | – | 11.2 µM (inactive) | 3.76 µM (inactive) | 12.9 µM (inactive) | 6.12 µM (inactive) | 3.01 µM (inactive) | 0.336 µM (active) | – | 1.02 µM (active) |
| COc1cc(C=O)cc(O)c1O | > 100 µM (inactive) | – | > 100 µM (inactive) | > 10 µM (inactive) | 76.6 µM (inactive) | > 100 µM (inactive) | – | 8.07 µM (inactive) | – | > 100 µM (inactive) | > 100 µM (inactive) | > 100 µM (inactive) | > 100 µM (inactive) | > 100 µM (inactive) | > 100 µM (inactive) | 57.9 µM (inactive) | > 100 µM (inactive) | – | – | > 100 µM (inactive) |
| Nc1ccc(C(=O)N/C(=C\C=C\c2ccco2)c2nc3c(O)nc(S)nc3[nH]2)cc1 | > 100 µM (inactive) | – | – | > 100 µM (inactive) | – | > 100 µM (inactive) | – | > 100 µM (inactive) | – | > 100 µM (inactive) | – | > 100 µM (inactive) | > 100 µM (inactive) | > 100 µM (inactive) | 87.1 µM (inactive) | > 100 µM (inactive) | > 100 µM (inactive) | > 100 µM (inactive) | – | > 100 µM (inactive) |
| O=C(/C=C/c1ccccc1)CCN1CCOCC1 | 20 µM (inactive) | 15 µM (inactive) | 12.2 µM (inactive) | 12.7 µM (inactive) | 17.8 µM (inactive) | 12.1 µM (inactive) | 21.6 µM (inactive) | 13.6 µM (inactive) | 18.8 µM (inactive) | 24.2 µM (inactive) | 1.56 µM (inactive) | 13.7 µM (inactive) | 18.5 µM (inactive) | 16.6 µM (inactive) | 15.9 µM (inactive) | 2.06 µM (inactive) | 24.1 µM (inactive) | 20.9 µM (inactive) | 4.99 µM (inactive) | 12 µM (inactive) |
| COC(=O)C(C#CCCCCC#CC(NC(=O)OCc1ccccc1)(C(=O)OC)C(F)(F)F)(NC(=O)OCc1ccccc1)C(F)(F)F (centres undefined) | > 100 µM (inactive) | – | > 100 µM (inactive) | > 100 µM (inactive) | > 100 µM (inactive) | > 100 µM (inactive) | – | > 100 µM (inactive) | – | 73.6 µM (inactive) | 4.36 µM (inactive) | > 100 µM (inactive) | > 100 µM (inactive) | 7.45 µM (inactive) | > 100 µM (inactive) | – | > 100 µM (inactive) | > 100 µM (inactive) | – | > 100 µM (inactive) |
| C/C(=N\NC(=[Se])N(C)C)c1ccccn1 | 0.459 µM (active) | 1.11 µM (active) | < 0.01 µM (active) | 0.455 µM (active) | < 0.01 µM (active) | 0.577 µM (active) | < 0.01 µM (active) | < 0.01 µM (active) | 1.41 µM (inactive) | 0.02 µM (active) | < 0.01 µM (active) | 1.87 µM (inactive) | 0.0703 µM (active) | 0.457 µM (active) | < 0.01 µM (active) | < 0.01 µM (active) | 0.0216 µM (active) | 0.103 µM (active) | < 0.01 µM (active) | 0.216 µM (active) |
